Data set [1] can be described thus: Thermal denaturation of oligomer fold (UV, Tm). The format is physicochemical.
A short description of data set [2]: Oligomer folding by circular dichroism. Particulars: KCl, 25° C., 20 mM Li3PO4.
Data set [3] deals with Vesicular Stomatitis virus.
On the set-up of data set [4]: species or system HIV-positive human patients. Conditions: human, in vivo. As for the experimental part:
Four HIV-infected patients/group were dosed with AR177 at 0.75 mg/kg and […], and two HIV-infected patients were dosed so far with AR177 at 3.0 mg/kg by intravenous infusion over two hours.
Blood was collected in EDTAp coated tubes at 0.25, 05, 1, 2, 2.05, 3, 3.5, 4, 6, 8, 11, 14, 26, 48, 98, and 122 hours following initiation of drug administration. Plasma was obtained by low speed centrifugation of the blood, and was stored frozen until analyzed by HPLC for AR177 concentration. The concentration of AR177 was determined in patient plasma using a validated anion-exchange HPLC method at the Division of Clinical Pharmacy of the University of California, San Francisco. This method has a limit of quantitation of 15 ng/mL in human plasma.
Pharmacokinetic parameters were calculated using PKAnalyst software (MicroMath, Salt Lake City, Utah). The pharmacokinetic data best fit a two compartment model for all of the patients. The alpha and beta half-lives were almost identical in each of the patients, based on the software interpretation of the AR177 plasma concentration versus time plot (FIGS. 56-59). For this reason, only one half-life is reported.

The next data set addresses T1, HIV-1 integrase IN1-288 (Human immunodeficiency virus type 1 group M subtype B, UniProt P12497).
T1 construct: purchased gift of Drs; T. Jenkins and R. Craigie, NIDDK, NIH (not bought; the expression system was also provided)
Description: Disintegration assay, wild-type integrase. It counts as biochemical.

The test system of another data set is PBLs. The format is cell-based, human. How it is done:
(§1) In other experiments of the effect of T30177 on the viability of primary human PBMCs, PBLs and macrophages was determined using the trypan blue dye exclusion technique. Griffiths, B., IRL Press, p. 48 (1992), or by measuring the degree of [^3H]thymidine or [^3]leucine uptake in these cells (McGrath, M. S., et al. Proc. Natl. Acad. Sci. USA 86:2844-2848 (1989)).
(§2) Cytotoxicity Assays. The cytotoxicity of T30177 was determined using several different cell lines and primary human cells as described above. The cytotoxicity profile obtained for log phase growing cells was variable depending upon the cell line used, while the slower growing PBMCs, PBLs, and macrophages all tolerated the compound at concentrations exceeding 100 μM as monitored using the trypan blue exclusion, [^3H]thymidine uptake, or [^3H]leucine uptake techniques.

For the next data set, the system named is PBMC. It counts as cell-based, human. As for the experimental part: as §1, §2
In the next data set the test system is Macrophages. It counts as cell-based, human. How it is done:
as §1, §2

Details of data set [5]: species or system cynomolgus monkeys. Conditions: cynomolgus monkey, in vivo. As for the experimental part: Dosing. Twelve experimentally naive cynomolgus monkeys were assigned to four groups of three animals each. Prior to dosing, each animal was lightly sedated with a combination of ketamine (1 0 mg/kg) and diazepam (0.5 mg/kg), and a catheter was introduced into the femoral artery for recording central arterial pressure. Monkeys were given a single intravenous infusion of 5, 20, or 50 mg AR177/kg or saline over ten minutes through a cephalic vein catheter using a Harvard infusion pump. Arterial blood samples were drawn at −10, +10, +20, +40, +60 and +120 minutes relative to the initiation of infusion into EDTA-containing tubes for hematology, complement factors, coagulation assay, serum chemistry, and plasma AR177 determination. At 24 hours post-infusion, blood was drawn via the femoral vein into EDTA-containing tubes for these same parameters. The concentration of AR177 in dosing solutions was confirmed post experiment by absorbance at 280 nm on a spectrophotometer. For the determination of AR177 by HPLC, the plasma fraction was obtained by low speed centrifugation of blood, and stored at −20° C. until used. Electrocardiograms (ECGs), central pressure, and heart rate were recorded continuously for 120 minutes following the initiation of doing. Table E-1 summarizes the study design. […]
Complement factors. The complement split product Bb and total hemolytic complement CH50 were determined. […]

A short description of another data set: in vitro. Particulars: human.
The subject of the next data set is HIV-1. Particulars: 3.0 mg/kg every other day, 14-day treatment, three patients.

Where two headings read alike, the source gives them in different places. Marks after values point to notes of the source that are not given here.

One may read the Tm as the temperature at the midpoint of the melting transition. The IC50 is the concentration that gives 50% inhibition. A high value points to weaker potency.

On to “5′-gtggtgggtgggtgggt-3′ (GTGGTGGGTGGGTGGGT; phosphorothioate termini, further chemistry not given here) [T30177, pPT version of parent compound I100-15, 17 mer]”, for which the Tm in [1] (1 mM KCl) was 53 °C; in data set [1] (10 mM KCl, calculated from linear fit), 70* ° C; in data set [1] (180 mM KCl, calculated from linear fit), 92* ° C. The “midpoint of K+ induced folding transition (CD, 264 nm)” value in data set [2] was found to be 0.15 mM. Moreover, the IC50 virus-induced cytopathogenicity (in data set [3] (Vesicular Stomatitis virus); in the data set on HSV-2 (G) (HSV-2 (G)); in the data set on Yellow Fever virus (Yellow Fever virus)) was >200 µg/mL throughout. Also, the “MCC minimum concentration altering normal cell morphology” value in data set [3] (Vesicular Stomatitis virus assay) was 400 μg/mL; with HSV-2 (G) (HSV-2 (G) assay), 400 μg/mL; in the data set on Yellow Fever virus (Yellow Fever virus assay), >200 μg/mL. The “initial volume of distribution” value in data set [4] (0.75 mg/kg) amounted to 0.16 ± 0.05 L/kg; in data set [4] (3 mg/kg), 0.08 ± 0.00 L/kg. Further, the “steady-state volume of distribution” value was determined as 0.14 ± 0.05 L/kg in [4] (0.75 mg/kg) and 0.05 ± 0.03 L/kg in data set [4] (3 mg/kg). Also, the concentration for half-maximal inhibition (IC50) with HIV-1 integrase IN1-288 was found to be 0.27 µM. Further, the CC50 in the data set with PBLs, in the data set on PBMC and in the data set on Macrophages was > 100 µM each time. Besides, the TC25 in the data set on PBLs, in the data set on PBMC and with Macrophages was >100 µM in each case. The TC95 with PBLs, in the data set on PBMC and in the data set with Macrophages was >100 µM throughout. The CH50 levels result in data set [5] is “small and transient decreases”. Further, the “change in CHX (CH50) levels” value in [5] is −25%.
With `Cc1cn([C@H]2C[C@H](N=[N+]=[N-])[C@@H](CO)O2)c(=O)[nH]c1=O` [AZT, 3′-azido-3′-deoxythymidine], in the data set “in vitro”, the CC50 was ~10 µM.
On to “5′-gtggtgggtgggtgggt-3′ [T30177] (GTGGTGGGTGGGTGGGT; phosphorothioate termini, further chemistry not given here)”, for which, in the data set on HIV-1, the “viral load (plasma HIV-1 RNA)” value was “viral load was significantly reduced”.

These data come from patent US6355785B1, “Guanosine-rich oligonucleotide integrase inhibitors” (Aronex Pharmaceuticals, Inc., priority 1993, dated 2002).
